According to patent US20150273076A1, “SP1 POLYPEPTIDES, MODIFIED SP1 POLYPEPTIDES AND USES THEREOF” (Fulcrum SP Ltd., priority 2006, published 2015):

Experiment: Fluorescein-amine complex formation (ultrafiltration, size exclusion HPLC)
Type: binding
Procedure: FIG. 9 is a histogram showing redox-dependent complex formation with small molecules by Cys2 SP1. Pure Cys 2 mutant (1.5 mg/ml in Phosphate buffered saline, pH=7.5 (PBS)) was incubated for 2 hours at room temp, with I mM fluorescein-amine with or without glutathione (reduced form, GSH 3 mM). Binding reaction was stopped by adding hydrogen peroxide (0.01%), followed by ultra filtration (using a 30 kD cutoff filter) and extensive wash. Absorption analysis was conducted at both 278 and 492 nm, and the results expressed as the 492/278 ratio. Note that in the absence of the reducing agent (GSH), retention of the flourescein-amine is negligible;
FIG. 10 is a graphic representation of the redox-dependent fluorescein amine complex formation by Cys2 SP1, compared to the recombinant SP1. Fluorescein-amine was incubated with pure SP1 or Cys2 SP1 mutant (1.5 mg/ml in PBS pH=7.5) in the absence or presence of DTT (10 mM). Binding reaction was stopped by adding hydrogen peroxide (0.01%), followed by ultra filtration (using 30 kD cutoff filter) and extensive wash. Samples were analyzed by Gel filtration HPLC, and detected at both 228 and 490 nm. Calculated data is shown on the right.
FIG. 11 is a histogram illustrating the concentration dependent complex formation with fluorescein-amine by Cys2 SP1. Huorescien-amine (10, 33, 100 or 333 mM) was incubated with Cys 2 SP1 or pure wild type SP1 in the presence of 10 mM DTT, and the bound and unbound fractions analyzed by ultra-filtration and HPLC as in FIG. 10.
Ultrafiltration was used for the detection of complex formation with the water soluble ligands FA and DOX which have a distinctive absorption properties and can be determined by spectroscopic measurements. […] Several additional washing cycles remove all remaining free FA and DOX, and the ligand-SP1 complex remains in the retained fraction.
Size exclusion chromatography is a common method for separation of molecules of different sizes under mild conditions and was employed to test FA and DOX complex formation under mild conditions. SP1 is eluted from the column after 7 min and is detected at 278 nm only, and free FA is eluted from the column (TSK G3000 SWXL, Tosohaas) after 16 min and is detected at 490 nm. The SP1-FA and SP1-DOX complexes also eluted at the same time but is detected also at 490 and 475 nm, respectively. DOX/SP1 ratio is determine from the standard curve obtained in solution.
5. Can complexed ligand be stabilized by association with the Cys2 SP1? Fluoresceine amine (FA): FA absorption peak is at 490 nm and at much lower extend at 278 nm (for a given FA concentration OD278/OD490=0.19)(see FIG. 31), when SP1 absorption peak is at 278 nm (see FIG. 30), and it is not detected at 490 nm. […] FA complexing with the Cys2 Sp1 variant was determined following incubation of FA and Cys2 SP1 variant in the absence or presence of GSH, followed by protein oxidation, ultra filtration (30 kDa cutoff) and exhaustive wash of the retained fraction with PBS with or without GSH. Absorption analysis at both 278 and 490 nm.

wild type: stress related SP1 protein from aspen (Populus tremula), recombinant, SEQ ID NO:1
FA complexing at low ligand concentration (10 μM FA, 10 mM DTT): no discernable FA complexing
complex formation with the FA marker (presence or absence of reducing agents, size exclusion chromatography): hardly forms complexes
